Measurements from ChEMBL document CHEMBL3612057, “Discovery of indolizines containing triazine moiety as new leads for the development of antitumoral agents targeting mitotic events” (2015).
Active and inactive are the calls of the source. No cut-off for these calls is given here.

Columns and labels:
Malme-3M = experiment: Cytotoxicity against human MALME-3M cells assessed as growth inhibition at 10 uM after 24 hrs by SRB assay; assay type: functional
SK-MEL-5 = experiment: Cytotoxicity against human SK-MEL-5 cells assessed as growth inhibition at 10 uM after 24 hrs by SRB assay; assay type: functional
UACC-62 = experiment: Cytotoxicity against human UACC62 cells assessed as growth inhibition at 10 uM after 24 hrs by SRB assay; assay type: functional
PC-3 = experiment: Cytotoxicity against human PC3 cells assessed as growth inhibition at 10 uM after 24 hrs by SRB assay; assay type: functional
HOP-62 = experiment: Cytotoxicity against human HOP62 cells assessed as growth inhibition at 10 uM after 24 hrs by SRB assay; assay type: functional
CAKI-1 = experiment: Cytotoxicity against human CAKI-1 cells assessed as growth inhibition at 10 uM after 24 hrs by SRB assay; assay type: functional
HCT-116 = experiment: Cytotoxicity against human HCT116 cells assessed as growth inhibition at 10 uM after 24 hrs by SRB assay; assay type: functional
[1] = Cytotoxicity against human Hs578T cells assessed as growth inhibition at 10 uM after 24 hrs by SRB assay; assay type: functional; conditions: Hs-578T, read-out: GI
NCI-H522 = experiment: Cytotoxicity against human NCI-H522 cells assessed as growth inhibition at 10 uM after 24 hrs by SRB assay; assay type: functional
SR = experiment: Cytotoxicity against human SR cells assessed as growth inhibition at 10 uM after 24 hrs by SRB assay; assay type: functional; conditions: read-out: GI
CCRF-CEM = experiment: Cytotoxicity against human CCRF-CEM cells assessed as growth inhibition at 10 uM after 24 hrs by SRB assay; assay type: functional
U-251 = experiment: Cytotoxicity against human U251 cells assessed as growth inhibition at 10 uM after 24 hrs by SRB assay; assay type: functional
UACC-257 = experiment: Cytotoxicity against human UACC257 cells assessed as growth inhibition at 10 uM after 24 hrs by SRB assay; assay type: functional
Ovis aries = species: Ovis aries; experiment: Inhibition of sheep tubulin polymerization at 100 uM by fluorescence assay
RXF 393 = experiment: Cytotoxicity against human RXF393 cells assessed as growth inhibition at 10 uM after 24 hrs by SRB assay; assay type: functional; conditions: RXF 393, 24 h, read-out: GI
OVCAR-4 = experiment: Cytotoxicity against human OVCAR4 cells assessed as growth inhibition at 10 uM after 24 hrs by SRB assay; assay type: functional
MDA-MB-435 = experiment: Cytotoxicity against human MDA-MB-435 cells assessed as growth inhibition at 10 uM after 24 hrs by SRB assay; assay type: functional
SNB-75 = experiment: Cytotoxicity against human SNB75 cells assessed as growth inhibition at 10 uM after 24 hrs by SRB assay; assay type: functional; conditions: SNB-75, 24 h, read-out: GI
SK-OV-3 = experiment: Cytotoxicity against human SKOV3 cells assessed as growth inhibition at 10 uM after 24 hrs by SRB assay; assay type: functional
T47D = experiment: Cytotoxicity against human T47D cells assessed as growth inhibition at 10 uM after 24 hrs by SRB assay; assay type: functional
SF-295 = experiment: Cytotoxicity against human SF295 cells assessed as growth inhibition at 10 uM after 24 hrs by SRB assay; assay type: functional
MCF7 = experiment: Cytotoxicity against human MCF7 cells assessed as growth inhibition at 10 uM after 24 hrs by SRB assay; assay type: functional
SF-539 = experiment: Cytotoxicity against human SF539 cells assessed as growth inhibition at 10 uM after 24 hrs by SRB assay; assay type: functional
786-0 = experiment: Cytotoxicity against human 786-0 cells assessed as growth inhibition at 10 uM after 24 hrs by SRB assay; assay type: functional
OVCAR-3 = experiment: Cytotoxicity against human OVCAR3 cells assessed as growth inhibition at 10 uM after 24 hrs by SRB assay; assay type: functional
NCI-H460 = experiment: Cytotoxicity against human NCI-H460 cells assessed as growth inhibition at 10 uM after 24 hrs by SRB assay; assay type: functional
OVCAR-8 = experiment: Cytotoxicity against human OVCAR8 cells assessed as growth inhibition at 10 uM after 24 hrs by SRB assay; assay type: functional
K562 = experiment: Cytotoxicity against human K562 cells assessed as growth inhibition at 10 uM after 24 hrs by SRB assay; assay type: functional
A549 = experiment: Cytotoxicity against human A549 cells assessed as growth inhibition at 10 uM after 24 hrs by SRB assay; assay type: functional
TK-10 = experiment: Cytotoxicity against human TK10 cells assessed as growth inhibition at 10 uM after 24 hrs by SRB assay; assay type: functional
RPMI-8226 = experiment: Cytotoxicity against human RPMI8226 cells assessed as growth inhibition at 10 uM after 24 hrs by SRB assay; assay type: functional
NCI/ADR-RES = experiment: Cytotoxicity against human NCI/ADR-RES cells assessed as growth inhibition at 10 uM after 24 hrs by SRB assay; assay type: functional
HOP-92 = experiment: Cytotoxicity against human HOP92 cells assessed as growth inhibition at 10 uM after 24 hrs by SRB assay; assay type: functional
ACHN = experiment: Cytotoxicity against human ACHN cells assessed as growth inhibition at 10 uM after 24 hrs by SRB assay; assay type: functional
NCI-H226 = experiment: Cytotoxicity against human NCI-H226 cells assessed as growth inhibition at 10 uM after 24 hrs by SRB assay; assay type: functional
MDA-MB-231 = experiment: Cytotoxicity against human MDA-MB-231 cells assessed as growth inhibition at 10 uM after 24 hrs by SRB assay; assay type: functional; conditions: MDA-MB-231, 24 h, read-out: GI
SK-MEL-28 = experiment: Cytotoxicity against human SK-MEL-28 cells assessed as growth inhibition at 10 uM after 24 hrs by SRB assay; assay type: functional
HL-60(TB) = experiment: Cytotoxicity against human HL-60(TB) cells assessed as growth inhibition at 10 uM after 24 hrs by SRB assay; assay type: functional

SMILES | growth inhibition (GI) (Malme-3M) | growth inhibition (GI) (HCT-116) | inhibition of growth at 10 µM [1] [%] | inhibition of growth at 10 µM (SR) [%] | growth inhibition (GI) (U-251) | growth inhibition (GI) (UACC-257) | inhibition (Ovis aries) | inhibition of growth at 10 µM (RXF 393) [%] | growth inhibition (GI) (MDA-MB-435) | inhibition of growth at 10 µM (SNB-75) [%] | growth inhibition (GI) (SK-OV-3) | growth inhibition (GI) (SF-539) | growth inhibition (GI) (786-0) | growth inhibition (GI) (TK-10) | growth inhibition (GI) (HOP-92) | growth inhibition (GI) (NCI-H226) | inhibition of growth at 10 µM (MDA-MB-231) [%] | growth inhibition (GI) (SK-MEL-28) | growth inhibition (GI) (HL-60(TB)) | also measured
COc1ccc(C(=O)c2cc(-c3nc(OC)nc(OC)n3)c3cc(C#N)ccn23)cc1 | inactive | inactive | 16 | 13 | inactive | inactive | inactive | 14 | inactive | 46 | inactive | inactive | inactive | inactive | inactive | inactive | 18 | inactive | inactive | growth inhibition (GI) (SK-MEL-5): inactive; growth inhibition (GI) (UACC-62): inactive; growth inhibition (GI) (PC-3): inactive; inhibition of growth at 10 µM (HOP-62; HOP-62, 24 h, read-out: GI): 25%; growth inhibition (GI) (CAKI-1): inactive; growth inhibition (GI) (NCI-H522): inactive; growth inhibition (GI) (CCRF-CEM): inactive; growth inhibition (GI) (OVCAR-4): inactive; growth inhibition (GI) (T47D): inactive; growth inhibition (GI) (SF-295): inactive; growth inhibition (GI) (MCF7): inactive; growth inhibition (GI) (OVCAR-3): inactive; growth inhibition (GI) (NCI-H460): inactive; growth inhibition (GI) (OVCAR-8): inactive; growth inhibition (GI) (K562): inactive; growth inhibition (GI) (A549): inactive; growth inhibition (GI) (RPMI-8226): inactive; growth inhibition (GI) (NCI/ADR-RES): inactive; growth inhibition (GI) (ACHN): inactive
COc1nc(OC)nc(-c2cc(C(=O)c3cc(OC)c(OC)c(OC)c3)n3c(-c4ccccc4)cccc23)n1 | inactive | inactive | 14 | 29 | inactive | inactive | inactive | 15 | inactive | 23 | inactive | inactive | inactive | inactive | inactive | inactive | 23 | inactive | inactive | inhibition of growth at 10 µM (SK-MEL-5; SK-MEL-5, 24 h, read-out: GI): 67%; inhibition of growth at 10 µM (UACC-62; UACC-62, 24 h, read-out: GI): 39%; inhibition of growth at 10 µM (PC-3; PC-3, 24 h, read-out: GI): 37%; growth inhibition (GI) (HOP-62): inactive; inhibition of growth at 10 µM (CAKI-1; CAKI-1, 24 h, read-out: GI): 43%; inhibition of growth at 10 µM (NCI-H522; NCI-H522, 24 h, read-out: GI): 11%; inhibition of growth at 10 µM (CCRF-CEM; read-out: GI): 62%; inhibition of growth at 10 µM (OVCAR-4; OVCAR-4, 24 h, read-out: GI): 18%; inhibition of growth at 10 µM (T47D; read-out: GI): 32%; inhibition of growth at 10 µM (SF-295; SF-295, 24 h, read-out: GI): 40%; inhibition of growth at 10 µM (MCF7; MCF7, 24 h, read-out: GI): 22%; inhibition of growth at 10 µM (OVCAR-3; OVCAR-3, 24 h, read-out: GI): 28%; inhibition of growth at 10 µM (NCI-H460; NCI-H460, 24 h, read-out: GI): 14%; inhibition of growth at 10 µM (OVCAR-8; OVCAR-8, 24 h, read-out: GI): 41%; inhibition of growth at 10 µM (K562; K562, 24 h, read-out: GI): 29%; inhibition of growth at 10 µM (A549; A549, 24 h, read-out: GI): 28%; inhibition of growth at 10 µM (RPMI-8226; RPMI-8226, 24 h, read-out: GI): 52%; inhibition of growth at 10 µM (NCI/ADR-RES; read-out: GI): 38%; inhibition of growth at 10 µM (ACHN; read-out: GI): 30%
